Columns and labels:
[1] = Defrosting time of frozen oil; format: physicochemical
Experimental: To determined defrosting time, frozen oil aliquots of 200 μI were incubated at ambient temperature of 20±2 C° until they were completely melted. Period of time, which was required for the tested sample to be melted, was measured with a laboratory timer (QUANTUM).

[2] = system: moderately obese volunteers; test: Lipoprotein O2 by catalymetry; format: in vivo, human
Experimental: (§1) Study Design. The total number of volunteers recruited to take part in the study was 18 (9 male and 9 female subjects) Caucasians 40-67 years old.
(§2) Products Formulated with Lycopene was developed and made by Lycotec Ltd. (Cambridge, United Kingdom). The daily dose was 1 capsule of 20 mg of lycopene, and it was taken with the main meal of the day. The period of administration was 1 month.
LDL-Px and Lipoprotein O2. Activity of serum LDL peroxidase proteins, which include IgG with superoxide dismutase activity, was measured as described previously. Plasma oxygen, which carried by blood lipids/lipoproteins was measured by catalymetry.

[3] = system: B10.MLM cells (alveolar macrophages); test: Transmission electron microscopy of cells; format: cell-based; conditions: 48 hours
Experimental: B10.MLM cells were cultured with or without lycopene for 48 hours and then harvested from the plates with trypsin-versene solution. Cell pellets obtained by centrifugation for 10 min at 1500 r.p.m. (Rotanta 460R; Hettich) were fixed with Ito-Karnovsky fixative solution, followed by post-fixation with OsO4 and treatment with aqueous uranyl acetate to provide contrast. The specimens were subsequently dehydrated in an ascending series of alcohol concentrations (50, 70, 96 and 100% ethanol), infiltrated with a 1:1 (v/v) mixture of LR White resin and 100% ethanol for 1 h and in a pure resin for 12 h at 4° C. Resin polymerization was performed at 56° C. for 24 h. Ultrathin sections were prepared, treated with a lead solution to provide contrast (Reynolds, 1963) and analysed using a JEOL 100B transmission electron microscope with an accelerating voltage of 80 kV (Jeol, Japan).

[4] = Size of Sunflower Oil lipid droplets, microscopy; format: physicochemical; parameters: Size of Sunflower Oil lipid droplets, Mean / Sunflower Oil lipid droplets, Droplet square: unit not given here
Description: (§3) For measurement of lipid droplets and fat globules and quantification of their size binocular microscope Olympus BX41 was used with Cell^B software for morphometric analysis. All parameters were collected from 10 randomly selected microscopic fields at ×1000).

[5] = system: moderately obese volunteers; test: Tissue oxygenation StO2 by NIRS, 20 mg lycopene study; format: in vivo, human
Experimental: as §1, §2
Thenar eminence and forearm muscles of the patients were used as a tissue target for the assessment of oxygen saturation, StO2, or combined level of oxygenated haemoglobin and myoglobin. StO2 was assessed by continuous wavelength near-infrared spectroscopy, NIRS, with wide-gap second-derivative (In Spectra, Hutchinson Technology, MN, USA). The measurements were taken at different time points.
The recording was initiated after 15 min of rest in a supine position before occlusion of the brachial artery. It was then continued during stagnant ischemia induced by rapidly inflating the cuff to 50 mm Hg above systolic BP. The ischemia lasted for 3 min, and the recording period lasted for another 5 min after that until StO2 was stabilized. The area under the hyperaemic curve, AUC, of the recorded signal for the settling time in the post-occlusion period was then calculated as described earlier in % O2/minute.

[6] = Hydrophobicity as oxygen gas solubility (micellar red-ox catalymetry); format: physicochemical
Description: It is known that gas molecules are more soluble in hydrophobic domains than in polar structures or liquids. For example, solubility of molecular oxygen could be 4 to 10 fold greater in intact lipid membrane than in a surrounding aqueous solution [1-5]. In other words one can use the measure of soluble gas in lipids, or other […], as a measure of its hydrophobicity. This approach seem logical, however to the best of our knowledge has never been published.
Here we describe a new method to measure hydrophobicity of lipids as a function of concentration of soluble molecular oxygen within their matrix.
There are a number of ways to measure molecular oxygen in solid, crystal and indeed lipid structures. Almost all of them are physical methods such as ESR [1] or polarography. However, we decided to use much simpler and faster micellar acceleration red-ox catalymetry. This test can measure O2 in a dozen parallel samples not only lipids in model systems but also in circulating lipoproteins from human blood.
The physical expansion of the size of the oil droplets observed in the above experiments was estimated by independent measurements on changes in their hydrophobicity. […] With this approach it was possible to detect these changes when ratio lycopene to fatty acids reached 1 to 10,000 and then it was a dose dependent effect. This rise reached its plateau level at the ratio 1:4,000.

[7] = Heating olive oil-in-water emulsions; format: physicochemical
[8] = Melting time at 37° C.; format: physicochemical
Experimental: (§4) Approximately 20 mg of butter, or pork fat, or beef fat, or cocoa butter, or chocolate, with or without certain concentrations of carotenoids, were placed on the surface of the laboratory slides and incubated at 37° C. in a laboratory incubator (TLK39).

[9] = Melting time; format: physicochemical; conditions: lycopene 0.25 to 0.5 mg per 1 gram
Experimental: as §4
For example, in experiments with the chocolate spread, when the lycopene was 0.25 to 0.5 mg per 1 gram of this product its melting time reduced by 30-35%, FIG. 18.

[10] = Size of beef fat globules, microscopy; format: physicochemical
Description: as §3, with “×1000). In case of beef fat, lycopene incorporation led to a smaller increase of its fat globules, only by 30%, FIG. 3.” for “×1000).”

[11] = after 20 mg lycopene daily for one month
[12] = lycopene dose 0.1 per 30 g of the oil
[13] = lycopene dose 0.5 per 30 g of the oil
[14] = lycopene dose 1.0 per 30 g of the oil
[15] = lycopene dose 2.0 per 30 g of the oil
[16] = lycopene dose 3.5 per 30 g of the oil
[17] = lycopene dose 7.0 per 30 g of the oil
[18] = lycopene dose 10.0 per 30 g of the oil

## CC(C)=CCC/C(C)=C/C=C/C(C)=C/C=C/C(C)=C/C=C/C=C(C)/C=C/C=C(C)/C=C/C=C(\C)CCC=C(C)C [Lycopene]
[1]; 0.3 mg per 1 ml of the oil
  Reduction of thawing time of Canola/Rapeseed oil: over 2 fold
  Reduction of thawing time of Olive oil: 10 fold
[1]; 0.3 mg per 1 ml of the oil, control 85 seconds
  Thawing time of Canola/Rapeseed oil: 40 s
[1]; 0.3 mg per 1 ml of the oil, control 120
  Thawing time of Cod Liver oil: 55 s
[1]; 0.3 mg per 1 ml of the oil, controls 60 (lycopene) and 48 seconds (astaxanthin)
  Thawing time of frozen Olive oil: 6 s
[1]; 0.3 mg per 1 ml the oil
  Reduction of thawing time of Sunflower oil: 17 fold
[2]; [11]
  Lipoprotein O2: 3.44 ± 0.27 µM
[2]; before, n = 18
  Lipoprotein O2: 2.94 ± 0.25 µM
[3]
  Mitochondrial structures: significantly increased both in size and their numbers
[4]; [12]
  Size of Sunflower Oil lipid droplets, Mean: 65.16
  Sunflower Oil lipid droplets, Droplet square: 0.36
[4]; [13]
  Size of Sunflower Oil lipid droplets, Mean: 144.82
  Sunflower Oil lipid droplets, Droplet square: 1.20
[4]; [14]
  Size of Sunflower Oil lipid droplets, Mean: 79.73
  Sunflower Oil lipid droplets, Droplet square: 0.72
[4]; [15]
  Size of Sunflower Oil lipid droplets, Mean: 149.25
  Sunflower Oil lipid droplets, Droplet square: 1.32
[4]; [16]
  Size of Sunflower Oil lipid droplets, Mean: 286.00
  Sunflower Oil lipid droplets, Droplet square: 4.03
[4]; [17]
  Size of Sunflower Oil lipid droplets, Mean: 202.78
  Sunflower Oil lipid droplets, Droplet square: 3.44
[4]; [18]
  Size of Sunflower Oil lipid droplets, Mean: 434.81
  Sunflower Oil lipid droplets, Droplet square: 20.71
[4]; sunflower oil
  Increase in lipid droplet diameter, could reach: 20 fold
[5]; [11]
  StO2: 80.4 ± 5.3^ AUC mm
[5]; before, n = 18
  StO2: 64.1 ± 4.9^ AUC mm
[6]; ratio of molecules of lycopene per molecules of fatty acids 1:3,000
  Hydrophobicity in terms of gas solubility: 248-287 10^−6 M O2 per mg of sunflower oil
[6]; ratio of molecules of lycopene per molecules of fatty acids 1:4,000
  Hydrophobicity in terms of gas solubility: 275-321 10^−6 M O2 per mg of sunflower oil
[6]; ratio of molecules of lycopene per molecules of fatty acids 1:5,000
  Hydrophobicity in terms of gas solubility: 197-198 10^−6 M O2 per mg of sunflower oil
[6]; ratio of molecules of lycopene per molecules of fatty acids 1:10,000
  Hydrophobicity in terms of gas solubility: 180-182 10^−6 M O2 per mg of sunflower oil
[6]; ratio of molecules of lycopene per molecules of fatty acids 1:20,000
  Hydrophobicity in terms of gas solubility: 143-155 10^−6 M O2 per mg of sunflower oil
[7]; 50%:50%, 1 molecule lycopene to 67,000 or astaxanthin to 71,000 fatty acids, control 10° C.
  Rate of heating of olive oil emulsion in water in the first 3 minutes: 18 °C
[7]; water to olive oil 75%:25%, control 62° C.
  Maximum temperature the emulsion could reach: 100 °C
[8]; 0.3 mg per 1 g
  Reduction of melting time of cocoa butter: more than 8 fold
[8]; 0.3 mg per 1 g of the chocolate
  Reduction of melting time of white chocolate: under 3 fold
[8]; 0.3 mg per 1 g of the chocolate, control 11 minutes
  Melting time of white chocolate: 4 min
[8]; 0.3 mg per 1 g, control 16.5 minutes
  Melting time of cocoa butter: 2 min
[9]
  Reduction of melting time of chocolate spread: 30-35%
[10]
  Increase of beef fat globules: 30%

Source: patent publication US20210023223A1, “HYDROCARBON / LIPID - CAROTENOID COMPLEXES” (IP SCIENCE LIMITED, priority 2018, published 2021)
